Entries after “also recorded” stand apart in the source; their conditions may differ.
Tests used:
[1] = test system: Gibco Human Episomal iPSCs and WA09 ESCs; experiment: DOE of small molecules on PSC expansion in suspension culture (viable cell counts Day 5); format: cell-based; conditions: for fold-expansion of PSCs: added to base PSC medium+1× RevitaCell, 24 well, 120 RPM, viable cell counts Day 5
Method: Design of Experiment (DOE) was conducted using Gibco Human Episomal induced pluripotent stem cells (iPSCs) and WA09 embryonic stem cells (ESCs) to determine the impact of the small molecules. These PSCs were seeded in base PSC medium+1× RevitaCell™ Supplement and grown in a 24 well non-tissue culture treated plate at 120 RPM on an orbital shaker platform and cell expansion was assessed via viable cell counts on Day 5. […] FIG. 1 depicts results from the assessment of various concentrations of an anti-clumping agent and individual small molecules CHIR99021, PD0325901, SP00125, BIRD796, and Go6983on the expansion of iPSCs and WA09 hESCs.

[2] = test system: Gibco Human Episomal iPSCs; experiment: Optimal range of CHIR99021 in 100 mL PBS bioreactors: fold-change and viability; format: cell-based
Method: The optimal range of CHIR99021 for use in the PSC Medium formulation if included in the formulation for everyday feeds was assessed. Gibco Human Episomal iPSCs were expanded in 100 mL PBS bioreactors in duplicate and cell counts were performed at the end of each passage. […] The sugar source (glucose/galactose) and the concentration of CHIR99021 was varied. The feed schedule was also modified to include every day vs. every-other-day feed schedules. Fold-change upon expansion and viability were assessed for each condition. CHIR99021 concentrations as low as 0.6 μM supported optimal cell expansion on an every-day medium exchange feed schedule (FIG. 11A) and viability on an every-day and every-other-day medium exchange feed schedule (FIG. 11B). […] (FIGS. 11A-11B).

iPSCs = experiment: DOE on balance of CHIR99021, Go6983 and BSA: spheroid formation, fold-expansion, Oct4 pluripotency; format: cell-based, human; conditions: for concentration giving maximal fold change (DOE prediction profiler): iPSCs in suspension, preference stated across WA09 ESCs and Gibco Human Episomal iPSCs
Method: DOE was conducted to assess the balance of CHIR99021, Go6983 (a broad-spectrum PKC inhibitor), and BSA in achieving optimum fold-expansion, while also providing support of maintenance of pluripotency. […] Variation in spheroid size resulting from the various culture conditions was assess by phase contrast imaging. […] At day 5 of culture spheroids were dissociated using StemPro Accutase and replated into 2D format for 24 hours. After 24 hours of growth, the cells were fixed, permeabilized and stained with DAPI and for Oct4 expression to determine the pluripotency of the dissociated cells. The number of cells expressing Oct4 was compared to the total number of cells expressing DAPI, enabling an estimation of the percentage of pluripotent stem cells obtained from the spheroids.
Various concentrations of Pinacidil, CHIR99021, Go6893, and BSA, with or without anti-clumping agent, was assessed for achieving fold-expansion of iPSCs in suspension culture. […] Overall, CHIR99021 facilitates spheroid formation and a balance of albumin and CHIR99021 maintains appropriate spheroid size.

H9 (WA09) ESCs = experiment: ESC expansion in PSC basal medium with or without CHIR99021 vs mTeSR1; format: cell-based, human; conditions: 10 μM Y-27632 at passaging; Day 5
Method: PSC expansion using the PSC media formulations provided herein was compared to expansion in commercially available media. H9 (WA09) ESCs were expanded in PSC basal medium in the absence of CHIR99021, PSC basal medium in the presence of CHIR99021, and in the mTeSR1 media formulation (Stem Cell Technologies). PSCs were passaged using StemPro™ Accutase™ cell dissociation reagent and grown in 6 well non-tissue culture treated plates seeded at 150,000 viable cells/mL in 2 mL of media and agitated at 70 RPM on an orbital shaker platform. […] Cell expansion was assessed via viable cell counts on Day 5. Cultures were fed with 50% medium replacement performed daily.

[3] = test system: Gibco Human Episomal iPSCs and WA09 ESCs; experiment: Expansion and spheroid morphology with small molecules added continuously vs Day 1 only; format: cell-based
Method: Cell morphology was assessed following exposure to formulations containing 3 μM CHIR99021 in continuous culture media vs exposure at day 1 only. iPSCs were grown in a 24 well non-tissue culture treated plate at 120 RPM on an orbital shaker platform and cell morphology was assessed on Day 5. In this experiment, the small molecules were added on Day 1 only or throughout the culture period. […] Cell expansion and morphology were assessed for PSC suspension cultures following incubation with the base PSC media formulation containing CHIR99021 alone or in combination with one or more of the other small molecules and/or anti-clumping agent. PSCs were grown in a 24 well non-tissue culture treated plate at 120 RPM on an orbital shaker platform and cell morphology was examined and cell expansion was assessed via viable cell counts on Day 5. In this experiment, the small molecules were either added on Day 1 only or throughout the culture period. In these figures, the x-axis indicates various formulations tested and the y-axis indicates the fold-change in viable cell counts from day 1 to day 5 of culture. Micrographs of the cell cultures at day 5 under certain conditions are also shown. […] It was surprising that the increase in fold-change could be accomplished through inclusion of CHIR99021 at the time of passage only (e.g., Day 1 only).

[4] = test system: Gibco Human Episomal iPSCs; experiment: ROCKi comparison (Chroman I, Pinacidil, RevitaCell vs Y-27632) in PSC medium; format: cell-based; conditions: 1× RevitaCell, 60 μM Pinacidil; for spheroid morphology (size): 50 nM Chroman I, 10 μM Y-27632; for spheroid expansion: Chroman I vs 10 μM Y-27632, CHIR99021 containing PSC medium, 5 days
Method: Gibco Human Episomal iPSCs were expanded in non-tissue culture treated 6 well plates on an orbital shaker set to 70 RPM. The cells were passaged from 2D cultures using StemPro Accutase and grown in PSC Medium. Cells were seeded on Day 0 at a concentration of 150,000 cells/mL in a 2 mL volume, with a ROCK inhibitor added to the culture. […] Spheroids were grown over 5 days, with 50% medium replacement performed daily.

[5] = test system: Gibco Human Episomal iPSCs; experiment: ROCK inhibitor pairing with PSC base medium formulation; format: cell-based; conditions: ROCKi used at time of passaging
Method: Following 5-day growth with 50% medium exchange daily and constant agitation on an orbital shake platform, fold-change upon expansion was assessed.

[6] = test system: Gibco Human Episomal iPSCs; experiment: Spheroid growth and Oct4 pluripotency by seeding supplement (RevitaCell, Y-27632, Cellartis Supplement 3); format: cell-based
Method: PSC fold-expansion and pluripotency maintenance was compared for spheroid cultures seeded with a ROCK inhibitor or with the Cellartis Supplement 3 of the commercially available Cellartis Def-CS 3D medium system and grown in the complete PSC medium provided herein. Gibco Human Episomal iPSCs were expanded in 24-well non tissue culture treated plates at 120 RPM on an orbital shaker platform in the complete PSC medium to determine whether the type of ROCKi or Supplement selected for use affects the overall spheroid growth. […] Overall spheroid growth and expansion was assessed after the cells had grown for 5 days in the 24 well plate (FIG. 15A). The pluripotency of the spheroids was also assessed after the cells had grown for 5 days in the 24 well plate (FIG. 15B). To assess pluripotency, spheroids were dissociated using StemPro Accutase and replated into 2D format for 24 hours. After 24 hours of growth, the cells were fixed, permeabilized and stained with DAPI and for Oct4 expression to determine the pluripotency of the dissociated cells. The number of cells expressing Oct4 was compared to the total number of cells expressing DAPI, enabling an estimation of the percentage of pluripotent stem cells obtained from the spheroids.

In the case of `Cc1cnc(-c2cnc(NCCNc3ccc(C#N)cn3)nc2-c2ccc(Cl)cc2Cl)[nH]1` [CHIR99021, 6-[[2-[[4-(2,4-dichlorophenyl)-5-(5-methyl-1H-imidazol-2-yl)-2-pyrimidinyl]amino]ethyl]amino]-3-pyridinecarbonitrile], the cell nucleation ([1]; CHIR99021 alone in base PSC medium formulation) is reported as “assisted in cell nucleation”, the “fold-expansion of PSCs” value [1] is reported as “significant improvement in fold-expansion” and the “CHIR99021 concentration supporting optimal cell expansion” value ([2]; continuously in medium, every-day medium exchange) is reported as ≥ 0.6 µM. For the same compound, the “CHIR99021 concentration supporting viability” value ([2]; every-day and every-other-day medium exchange) was ≥ 0.6 µM, the “CHIR99021 concentration supporting optimal fold-expansion” value ([2]; fed on every-other-day cadence) was “up to 1.5 μM” and the “concentration giving maximal fold change (DOE prediction profiler)” value (iPSCs) was “intermediate concentration”. The spheroid formation (iPSCs; seeded with 10 μM Y-27632, 3 μM CHIR99021 present or absent) was “aids in spheroid formation”, the “fold-expansion compared to PSC basal medium without CHIR99021” value (H9 (WA09) ESCs) was “enhances fold-expansion” and the “fold-expansion compared to mTeSR1” value (H9 (WA09) ESCs) was “significantly enhanced fold-expansion”. For the same compound, the “spheroid morphology Day 5” value ([3]; 3 μM CHIR99021 included on a continual basis) was “aberrant differentiation was noted for some conditions”, the fold-expansion ([3]; CHIR99021 at various concentrations only at time of passaging) was “effective at increasing fold-expansion” and the “spheroid morphology Day 5” value ([3]; CHIR99021 included only at time of passaging (Day 1)) was “typical smooth edges and spheroid morphology; also recorded: maintain normal spheroidal morphology”.

In the case of `COc1ccc2c(c1)C[C@H](C(=O)Nc1ccc(-c3cn[nH]c3)cc1OCCN(C)C)CO2` [Chroman I], the “spheroid morphology (size)” value [4] is reported as “morphologically larger” and the spheroid expansion [4] is reported as “perform similarly”.

For `COc1ccc2c(c1)c(C1=C(c3c[nH]c4ccccc34)C(=O)NC1=O)cn2CCCN(C)C` [Go6983], the “concentration giving maximal fold change (DOE prediction profiler)” value (iPSCs) was “exclusion of Go6983 and anti-clump agent is preferred”.

With `O=C(NOC[C@H](O)CO)c1ccc(F)c(F)c1Nc1ccc(I)cc1F` [PD0325901] the “fold-expansion of PSCs” value [1] was “detrimental to overall PSC expansion”.

In the case of `CC(N/C(=N\C#N)Nc1ccncc1)C(C)(C)C` (stereo not drawn) [Pinacidil], the “spheroid morphology (size)” value [4] is reported as “morphologically smaller” and the spheroid expansion [4] is reported as “inferior to 10 μM Y-27632”.

For `O=C1c2ccccc2-c2n[nH]c3cccc1c23` [SP00125], the “fold-expansion of PSCs” value [1] was “detrimental to overall PSC expansion”.

For `O=C(NCc1ccccc1)c1csc(Nc2ccncn2)n1` [Thiazovivin], the “spheroid size relative to Pinacidil” value [5] was “Larger spheroids”.

For `C[C@@H](N)[C@H]1CC[C@H](C(=O)Nc2ccncc2)CC1` [Y-27632, (R)-(+)-trans-4-(1-aminoethyl)-N-(4-pyridyl)cyclohexanecarboxamide], the “spheroid morphology (size)” value [4] was “morphologically larger”, the spheroid expansion [4] was “optimal performance” and the “spheroid size and morphology on Day 5” value ([6]; added on day 1 in complete PSC medium, 24 well, 120 RPM) was “most efficient with larger spheroids”. For the same compound, the “maintenance of pluripotency (Oct4 vs DAPI)” value ([6]; after 5 days, replated 24 hours) was “maintain high levels of pluripotent stem cells”.
